This note sets out measurements from ChEMBL document CHEMBL3861999, “Investigation of C-5 alkynyl (alkynyloxy or hydroxymethyl) and/or N-3 propynyl substituted pyrimidine nucleoside analogs as a new class of antimicrobial agents” (Bioorg Med Chem, 2016).

Holding throughout (type): functional
Holding throughout (conditions): variant bovis BCG, 144 h, read-out: GI

For assay [1], the system named is Mycobacterium tuberculosis. Briefly: Growth inhibition of Mycobacterium bovis BCG at 200 ug/ml after 6 days by microplate alamar blue assay. On the technique in general: Resazurin is reduced to fluorescent resorufin, in cell work by metabolically active cells.
The test system of assay [2] is Mycobacterium tuberculosis. Briefly: Growth inhibition of Mycobacterium bovis BCG at 1 ug/ml after 6 days by microplate alamar blue assay.
For assay [3], the system named is Mycobacterium tuberculosis. As to the kind of experiment: Growth inhibition of Mycobacterium bovis BCG at 0.5 ug/ml after 6 days by microplate alamar blue assay.

`C#CCOc1cn([C@@H]2O[C@H](CO)[C@@H](O)[C@H]2F)c(=O)[nH]c1=O`: the inhibition of growth at 200 µg/mL in assay [1] came out at 98%.

For `C#CCOc1cn([C@@H]2O[C@H](CO)[C@@H](O)[C@H]2F)c(=O)n(CC#C)c1=O`, the inhibition of growth at 200 µg/mL in assay [1] came to 34%.

As to `NNC(=O)c1ccncc1` [ISONIAZID], in assay [2], the inhibition of growth at 1 µg/mL is 100%.

Consider `CO[C@H]1/C=C/O[C@@]2(C)Oc3c(C)c(O)c4c(O)c(c(/C=N/N5CCN(C)CC5)c(O)c4c3C2=O)NC(=O)/C(C)=C\C=C\[C@H](C)[C@H](O)[C@@H](C)[C@@H](O)[C@@H](C)[C@H](OC(C)=O)[C@@H]1C` [RIFAMPIN], for which the inhibition of growth at 0.5 µg/mL in assay [3] was determined as 100%.
